From patent publication US7399319B2, “Dyeing composition comprising a dye chosen from styryl and imine dyes and methods for dyeing keratin fibers” (L'Oreal S.A., priority 2005, dated 2008)

Assay: Shampoo-fastness test on dyed locks
Method: A shampoo-fastness test was performed on the locks of hair dyed with dyes 1 and 2 obtained under the conditions described above. The dyed locks were subjected to 20 shampoo washes according to a cycle comprising wetting the locks with water, washing with shampoo, rinsing with water, and then drying.
The degradation of the color after x shampoo washes was estimated according to the following formula:
[formula] [formula] [formula] [formula] [formula] wherein a*ctrl, b*ctrl, and L*ctrl are the values of a*, b*, and L* of the non-dyed lock; a*dyed, b*dyed, and L*dyed are the values of a*, b*, and L* of the dyed lock before shampooing, whereas a*xSh, b*xSh, and L*xSh are the values of a*, b*, and L* of the dyed lock after x shampoo washes.

[1] = permanent-waved lock, after 5 shampoo washes
[2] = permanent-waved lock, after 12 shampoo washes
[3] = permanent-waved lock, after 18 shampoo washes
[4] = permanent-waved lock, after 20 shampoo washes

| % degradation [1] [%] | % degradation [2] [%] | % degradation [3] [%] | % degradation [4] [%] | % degradation (natural lock, after 5 shampoo washes) [%] | % degradation (natural lock, after 12 shampoo washes) [%] | % degradation (natural lock, after 18 shampoo washes) [%] | % degradation (natural lock, after 20 shampoo washes) [%] | SMILES |
| --- | --- | --- | --- | --- | --- | --- | --- | --- |
| 10 | 17 | 18 | 24 | – | – | – | – | CN(C)c1ccc(C=CC23OCCN2c2ccccc2C3(C)C)cc1 (stereo not drawn) [Dye 1] |
| 6 | 6 | 7 | 11 | 4 | 14 | 18 | 20 | CN(C)c1ccc(C=CC=CC23OCCN2c2ccccc2C3(C)C)cc1 (stereo not drawn) [Dye 2] |
